The term IC50 denotes the midpoint of a concentration-inhibition curve. A low value points to inhibition by little substance. In general, IC90 refers to the point of the concentration-response curve where the effect stands at 90%. Low values mean greater potency, high ones weaker potency.

What all share (assay type): cell-based
Test [1] relates to SDMA (PRMT5 activity) in HAP1 MTAP-intact cell line. Briefly: SDMA in-cell western assay, HAP1 MTAP-intact. The note with it: SDMA in-cell western, HAP1 MTAP-intact cells, 24 hours compound incubation.
The subject of test [2] is SDMA (PRMT5 activity) in HAP1 MTAP-deleted cell line. Briefly: SDMA in-cell western assay, HAP1 MTAP-deleted. The note with it: for IC50 / IC90: SDMA in-cell western, HAP1 MTAP-deleted cells, 24 hours compound incubation; for Hap1 MTAP intact/deleted ratio: ratio of SDMA IC50 in HAP1 MTAP-intact to HAP1 MTAP-deleted cell line.
Test [3] has as its system HAP1 MTAP-deleted cell line. The experiment in a line: Viability assay (CellTiter-Glo), HAP1 MTAP-deleted. The following applies: HAP1 MTAP-deleted cells, 7 days. An outline of the steps: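 HAP1 MTAP-deleted and MTAP-intact cells seeded, then dosed next day (n=3, 0.2% DMSO) and grown 7 days. Viability by CellTiter-Glo luminescence, expressed as % of DMSO control per cell line.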
(In general: In ATP-based viability assays light output follows the ATP content of the culture.)

For the compound `CCc1cc(NC(=O)C(=O)N2C[C@@H](C)CC[C@@H]2c2ccc3sc([C@@H](C)CN4CCCC4)nc3c2)cnc1N` [Compound 47], the IC50 in test [1] (Homo sapiens, HAP1, 24 h) is more than 50 nM; in test [2] (Homo sapiens), less than 5 nM; in test [3] (Homo sapiens, 168 h) it was less than 100 nM. Moreover, the 90% effect concentration (IC90) in test [2] (Homo sapiens) is less than 75 nM. Moreover, in test [2], the “Hap1 MTAP intact/deleted ratio” value is “A (“A” indicates an IC50 ratio greater than or equal to 30 fold)”.
`COc1ncc(NC(=O)C(=O)N2C[C@@H](C)CC[C@@H]2c2ccc3sc(C4CCNCC4)nc3c2)cc1C(N)=O` [Compound 52, 2-methoxy-5-(2-((2R,5S)-5-methyl-2-(2-(piperidin-4-yl)benzo[d]thiazol-5-yl)piperidin-1-yl)-2-oxoacetamido)nicotinamide]: the IC50 is more than 50 nM in test [1] (Homo sapiens, HAP1, 24 h); 5 to 50 nM in test [2] (Homo sapiens); 100 to 1000 nM in test [3] (Homo sapiens, 168 h). The compound further gave an IC90 in test [2] (Homo sapiens) of 75 to 125 nM. Further, the “Hap1 MTAP intact/deleted ratio” value in test [2] is “B (“B” indicates an IC50 ratio greater than or equal to 15 fold but lower than 30 fold)”.
Regarding `COc1ncc(NC(=O)C(=O)N2C[C@@H](C)CC[C@@H]2c2ccc3cn([C@@H]4CCN(C)C4)nc3c2)cc1C(N)=O` [Compound 102, 2-methoxy-5-(2-((2R,5S)-5-methyl-2-(2-((R)-1-methylpyrrolidin-3-yl)-2H-indazol-6-yl)piperidin-1-yl)-2-oxoacetamido)nicotinamide], the IC50 in test [1] (Homo sapiens, HAP1, 24 h) was more than 50 nM; in test [2] (Homo sapiens) it was less than 5 nM; in test [3] (Homo sapiens, 168 h), less than 100 nM. In test [2] (Homo sapiens), the 90% effect concentration (IC90) was less than 75 nM. Further, the “Hap1 MTAP intact/deleted ratio” value in test [2] was “A (“A” indicates an IC50 ratio greater than or equal to 30 fold)”.
Consider `CCc1cc(NC(=O)C(=O)N2CCCC[C@@H]2c2ccc3sc(C4CCN(C)CC4)nc3c2)cnc1N` [Compound 73, N-(6-amino-5-ethylpyridin-3-yl)-2-(2-(2-(1-methylpiperidin-4-yl)benzo[d]thiazol-5-yl)piperidin-1-yl)-2-oxoacetamide], for which the IC50 was more than 50 nM in test [1] (Homo sapiens, HAP1, 24 h); 5 to 50 nM in test [2] (Homo sapiens); 100 to 1000 nM in test [3] (Homo sapiens, 168 h). Further, the IC90 in test [2] (Homo sapiens) was in the range of 75 to 125 nM. In test [2], the “Hap1 MTAP intact/deleted ratio” value was “A (“A” indicates an IC50 ratio greater than or equal to 30 fold)”.
On to `CCc1cc(NC(=O)C(=O)N2C[C@@H](C)CC[C@@H]2c2ccc3sc(C4=CCN(C)CC4)nc3c2)cnc1N` [Compound 28, N-(6-amino-5-ethylpyridin-3-yl)-2-((2R,5S)-5-methyl-2-(2-(1-methyl-1,2,3,6-tetrahydropyridin-4-yl)benzo[d]thiazol-5-yl)piperidin-1-yl)-2-oxoacetamide], for which the IC50 in test [1] (Homo sapiens, HAP1, 24 h) was 5 to 50 nM; in test [2] (Homo sapiens), less than 5 nM; in test [3] (Homo sapiens, 168 h) it was less than 100 nM. Besides, the concentration for an effect of 90% (IC90) in test [2] (Homo sapiens) was less than 75 nM. Also, in test [2], the “Hap1 MTAP intact/deleted ratio” value is listed as “A (“A” indicates an IC50 ratio greater than or equal to 30 fold)”.
Regarding `CCc1cc(NC(=O)C(=O)N2C[C@@H](C)CC[C@@H]2c2ccc3sc(C4=C(C)CN(C)CC4)nc3c2)cnc1N` [Compound 84, N-(6-amino-5-ethylpyridin-3-yl)-2-((2R,5S)-2-(2-(1,5-dimethyl-1,2,3,6-tetrahydropyridin-4-yl)benzo[d]thiazol-5-yl)-5-methylpiperidin-1-yl)-2-oxoacetamide], the IC50 in test [1] (Homo sapiens) is more than 50 nM; in test [2] (Homo sapiens), less than 5 nM; in test [3] (Homo sapiens, 168 h), less than 100 nM. Moreover, the IC90 in test [2] (Homo sapiens) is less than 75 nM. The “Hap1 MTAP intact/deleted ratio” value in test [2] was “B (“B” indicates an IC50 ratio greater than or equal to 15 fold but lower than 30 fold)”.
Take `CCc1cc(NC(=O)C(=O)N2C[C@@H](C)CC[C@@H]2c2ccc3cn([C@@H]4C[C@@H](C)CN(C)C4)nc3c2)cnc1N` (relative stereo) [Compound 60, N-(6-amino-5-ethylpyridin-3-yl)-2-((2R,5S)-2-(2-(1,5-dimethylpiperidin-3-yl)-2H-indazol-6-yl)-5-methylpiperidin-1-yl)-2-oxoacetamide]: the IC50 is more than 50 nM in test [1] (Homo sapiens, HAP1, 24 h); less than 5 nM in test [2] (Homo sapiens); less than 100 nM in test [3] (Homo sapiens, 168 h). This compound also came in with a 90% effect concentration (IC90) in test [2] (Homo sapiens) of less than 75 nM. In test [2], the “Hap1 MTAP intact/deleted ratio” value was “A (“A” indicates an IC50 ratio greater than or equal to 30 fold)”.
Taken in the same sequence, the figures for `CCc1cc(NC(=O)C(=O)N2C[C@@H](C)CC[C@@H]2c2ccc3nn([C@H]4CCN(C)C(C)(C)C4)cc3c2)cnc1N` [Compound 44] were 5 to 50 nM, less than 5 nM, less than 100 nM, less than 75 nM and “B (“B” indicates an IC50 ratio greater than or equal to 15 fold but lower than 30 fold)”.
Regarding `COc1ncc(NC(=O)C(=O)N2C[C@@H](C)CC[C@@H]2c2ccc3sc(C4=C(C)CN(C)CC4)nc3c2)cc1C(N)=O` [Compound 61, 5-(2-((2R,5S)-2-(2-(1,5-dimethyl-1,2,3,6-tetrahydropyridin-4-yl)benzo[d]thiazol-5-yl)-5-methylpiperidin-1-yl)-2-oxoacetamido)-2-methoxynicotinamide], the IC50 in test [1] (Homo sapiens) is more than 50 nM; in test [2] (Homo sapiens), less than 5 nM; in test [3] (Homo sapiens, 168 h), less than 100 nM. For the same compound, the IC90 in test [2] (Homo sapiens) was less than 75 nM. Moreover, in test [2], the “Hap1 MTAP intact/deleted ratio” value is reported as “A (“A” indicates an IC50 ratio greater than or equal to 30 fold)”.
`CCc1cc(NC(=O)C(=O)N2C[C@@H](C)CC[C@@H]2c2cccc(OC3CCN(C)CC3)c2)cnc1N` [Compound 58, N-(6-amino-5-ethylpyridin-3-yl)-2-((2R,5S)-5-methyl-2-(3-((1-methylpiperidin-4-yl)oxy)phenyl)piperidin-1-yl)-2-oxoacetamide]: the IC50 in test [1] (Homo sapiens, HAP1, 24 h) is more than 50 nM; in test [2] (Homo sapiens) it was less than 5 nM; in test [3] (Homo sapiens, 168 h), less than 100 nM. Also, in test [2] (Homo sapiens), the concentration for an effect of 90% (IC90) was less than 75 nM. For the same compound, in test [2], the “Hap1 MTAP intact/deleted ratio” value was “A (“A” indicates an IC50 ratio greater than or equal to 30 fold)”.
As for `CCc1cc(NC(=O)C(=O)N2C[C@@H](C)CC[C@@H]2c2ccc3cn(C4CN(C)CC(C)(C)C4)nc3c2)cnc1N` (single isomer, unassigned) [Compound 78], the 50% inhibitory concentration (IC50) in test [1] is more than 50 nM; in test [2] (Homo sapiens), less than 5 nM; in test [3] (Homo sapiens, 168 h) it was less than 100 nM. This compound came in with an IC90 in test [2] (Homo sapiens) of less than 75 nM. Further, the “Hap1 MTAP intact/deleted ratio” value in test [2] was “B (“B” indicates an IC50 ratio greater than or equal to 15 fold but lower than 30 fold)”.
For the compound `COc1ncc(NC(=O)C(=O)N2C[C@@H](C)CC[C@@H]2c2ccc3sc([C@@H]4CN(C)C(C)(C)C4)nc3c2)cc1C(N)=O` (single isomer, unassigned) [Compound 30], the 50% inhibitory concentration (IC50) is more than 50 nM in test [1] (Homo sapiens, HAP1, 24 h); less than 5 nM in test [2] (Homo sapiens); less than 100 nM in test [3] (Homo sapiens, 168 h). This compound gave an IC90 in test [2] (Homo sapiens) of less than 75 nM. In test [2], the “Hap1 MTAP intact/deleted ratio” value is reported as “B (“B” indicates an IC50 ratio greater than or equal to 15 fold but lower than 30 fold)”.
For `CCc1cc(NC(=O)C(=O)N2C[C@@H](C)CC[C@@H]2c2ccc3cc(C4CCN(C)CC4)cnc3c2)cnc1N` [Compound 95, N-(6-amino-5-ethylpyridin-3-yl)-2-((2R,5S)-5-methyl-2-(3-(1-methylpiperidin-4-yl)quinolin-7-yl)piperidin-1-yl)-2-oxoacetamide], the IC50 was 5 to 50 nM in test [1] (Homo sapiens, HAP1, 24 h); less than 5 nM in test [2] (Homo sapiens); less than 100 nM in test [3] (Homo sapiens, 168 h). Further, in test [2] (Homo sapiens), the concentration for an effect of 90% (IC90) was less than 75 nM. Moreover, the “Hap1 MTAP intact/deleted ratio” value in test [2] is “B (“B” indicates an IC50 ratio greater than or equal to 15 fold but lower than 30 fold)”.
On to `CCc1cc(NC(=O)C(=O)N2C[C@@H](C)CC[C@@H]2c2ccc3sc(C(C)CN4CCCC4)nc3c2)cnc1N` (single isomer, unassigned) [Compound 106], for which the concentration for half-maximal inhibition (IC50) in test [1] lay within 5 to 50 nM. In test [2], the 50% inhibitory concentration (IC50) is less than 5 nM, the IC90 was less than 75 nM and the “Hap1 MTAP intact/deleted ratio” value is given as “B (“B” indicates an IC50 ratio greater than or equal to 15 fold but lower than 30 fold)”. Further, the IC50 in test [3] is less than 100 nM.
`C[C@H]1CC[C@H](c2ccc3sc(C4CCN(C)C(C)(C)C4)nc3c2)N(C(=O)C(=O)Nc2cnc(N)c(C3COC3)c2)C1` (single isomer, unassigned) [Compound 34]: the IC50 was 5 to 50 nM in test [1] (Homo sapiens, HAP1, 24 h); less than 5 nM in test [2] (Homo sapiens); less than 100 nM in test [3] (Homo sapiens, 168 h). The IC90 in test [2] (Homo sapiens) is less than 75 nM. In addition, in test [2], the “Hap1 MTAP intact/deleted ratio” value is “C (“C” indicates an IC50 ratio of less than 15 fold)”.
With `COc1ncc(NC(=O)C(=O)N2C[C@@H](C)CC[C@@H]2c2ccc3ccc(C4CCN(C)CC4)nc3c2)cc1C(N)=O` [Compound 88, 2-methoxy-5-(2-((2R,5S)-5-methyl-2-(2-(1-methylpiperidin-4-yl)quinolin-7-yl)piperidin-1-yl)-2-oxoacetamido)nicotinamide], the IC50 was more than 50 nM in test [1] (Homo sapiens, HAP1, 24 h); less than 5 nM in test [2] (Homo sapiens); less than 100 nM in test [3] (Homo sapiens, 168 h). Also, the IC90 in test [2] (Homo sapiens) was less than 75 nM. The “Hap1 MTAP intact/deleted ratio” value in test [2] is listed as “A (“A” indicates an IC50 ratio greater than or equal to 30 fold)”.

These data come from patent US20250171432A1, “COMPOUNDS AND METHODS OF USE” (Tango Therapeutics, Inc., priority 2022, published 2025).
